Laboratory results taken from patent publication US20110172200A1, “USE OF INHIBITOR OF BETA-LACTAMASES AND ITS COMBINATION WITH BETA-LACTAM ANTIBIOTICS” (priority 2008, published 2011).
“And” between values parts separate entries of the source, which are not always exact repeats. Equal entries are not always repeated. Where two headings read alike, the source gives them in different places.

Experiments:
[1] = system: E. faecalis ATCC 29212; assay: Broth microdilution susceptibility assay (MIC), strain S5; format: cell-based; conditions: duplicate, CAMHB, 35° C.; for MIC S5: 24 h; for MIC: Enterococcus faecalis, ATCC29212, 24 h
Protocol: (§1) Representative inhibitor of beta-lactamases of formula (I) was evaluated against the bacterial strains producing serine-based class A beta-lactamases including CTX-M, TEM-type, SHV-type extended spectrum beta-lactamases (ESBL) and class C betalactamases (AmpC) as noted in Table 2.
(§2) Bacterial suspensions with a turbidity equivalent to that of a 0.5 McFarland standard were prepared by suspending a tiny portion of one colony from blood agar plates in 2 mL of sterile saline. Suspensions were further diluted with cation adjusted Mueller Hinton Broth (CAMHB) to obtain a final inoculum of 5×10^5 CFU/mL.
(§3) The in vitro activities of the antibiotics were determined by the broth microdilution method as recommended by CLSI guidelines.
(§4) MIC experiments were performed in duplicate in 96-well microtiter plates using CAMHB. Serial twofold dilutions of each antibiotic either alone or in combination with constant concentration ratio of LK-176 (2:1) and (10:1) were prepared in CAMHB. The bacterial suspension with final inoculum […] was transferred to the test medium containing the antibacterial substances. In each well of microtiter plate 50 μL of bacterial inoculum and 50 μL of antibiotic dilutions were combined. Each plate included 4 wells with no bacterial inoculum (negative control) and 4 wells with no test compound and no antibiotic (positive control). The plates were incubated at 35° C. for 24 h. Purity check and colony counts on each inoculum suspension was performed to ensure that the final inoculum concentration routinely obtained closely approximates 5×10^5 CFU/mL.

[2] = single and repeated doses, i.v. and oral, healthy subjects; cited from earlier work
[3] = system: AmpC; conditions: cited from earlier work
[4] = system: C. freundii B318 (CTX-M); assay: Broth microdilution susceptibility assay (MIC), strain S9; format: cell-based
Protocol: as §1, §2, §3, §4

[5] = system: E. caerogenes ATCC 29751 (class II); assay: Broth microdilution susceptibility assay (MIC), strain S4; format: cell-based; conditions: duplicate, CAMHB, 35° C., 24 h
Protocol: as §1, §2, §3, §4

[6] = system: K. pneumoniae DSA 1461; assay: Broth microdilution susceptibility assay (MIC), strain S6; format: cell-based; conditions: Table 2 lower part, duplicate, CAMHB, 35° C., 24 h
Protocol: as §1, §2, §3, §4

[7] = system: C. freundii B271 (SHV-5); assay: Broth microdilution susceptibility assay (MIC), strain S8; format: cell-based; conditions: CAMHB, 35° C., 24 h; for MIC: Citrobacter freundii
Protocol: as §1, §2, §3, §4

[8] = system: E. cloacae 4013; assay: Broth microdilution susceptibility assay (MIC), strain S3; format: cell-based; conditions: duplicate, CAMHB, 35° C.; for MIC S3: 24 h; for MIC: Enterobacter cloacae, 4013, 24 h
Protocol: as §1, §2, §3, §4

[9] = system: E. cloacae B274 (AmpC); assay: Broth microdilution susceptibility assay (MIC), strain S1; format: cell-based; conditions: CAMHB, 35° C., 24 h; for MIC: Enterobacter cloacae
Protocol: as §1, §2, §3, §4

[10] = system: E. cloacae B275 (AmpC); assay: Broth microdilution susceptibility assay (MIC), strain S2; format: cell-based; conditions: duplicate, CAMHB, 35° C., 24 h
Protocol: as §1, §2, §3, §4

[11] = system: K. pneumoniae ATCC 700603 (SHV-18); assay: Broth microdilution susceptibility assay (MIC), strain S7; format: cell-based; conditions: CAMHB, 35° C.; for MIC S7: 24 h; for MIC: Klebsiella pneumoniae, ATCC700603, 24 h
Protocol: as §1, §2, §3, §4

[12] = target: class C beta-lactamase P99 (AmpC) (Enterobacter cloacae, UniProt P05364); assay: IC50 determination with nitrocefin as reporter substrate, P99; format: biochemical
Protocol: (§5) The IC50 value represents the concentration of inhibitor required to effect a 50% loss of activity of free enzyme. A standard test for the production of beta-lactamase involves use of the chromogenic cephalosporin, nitrocefin.
(§6) Homogeneously purified class A beta-lactamases TEM-1 and SHV-1 from E. coli and class C enzyme P99 from Enterobacter cloaca were employed in the assay.
(§7) All the enzymes and compounds were dissolved in 50 mM phosphate buffer pH 7.0 and all further dilutions were done with the same buffer solution. Enzyme and compound dilutions were pre-incubated for 30 min at 37° C. and in a final volume of 500 μl. Than 10 μl of 5 mM nitrocefin (reporter substrate) was added to the solution and the absorbance at 482 nm was measured during 2 to 5 minutes. The initial rate was calculated for all the different solutions. The […] values were determined as the inhibitor concentration that gave an initial hydrolysis rate of nitrocefin equal to 50% of the hydrolysis rate of nitrocefin in absence of inhibitor.
(§8) Representative compounds of formula (I) were evaluated as inhibitors of beta-lactamases of TEM-1 and SHV-1 (class A, penicillinase) from E. coli and P-99 (class C, cephalosporinase) from Enterobacter cloacae, by relative IC50 analysis using a procedure similar to that described above.

[13] = target: class A beta-lactamase SHV-1 (Escherichia coli, UniProt P0AD63); assay: IC50 determination with nitrocefin as reporter substrate, SHV-1; format: biochemical, E. coli
Protocol: as §5, §6, §7, §8

[14] = target: class A beta-lactamase TEM-1 (Escherichia coli, UniProt P62593); assay: IC50 determination with nitrocefin as reporter substrate, TEM-1; format: biochemical, E. coli; conditions: 30 min pre-incubation at 37° C., phosphate buffer pH 7.0, nitrocefin
Protocol: as §5, §6, §7, §8

[15] = system: strains S1-S9; assay: Broth microdilution susceptibility assay (MIC), all strains; format: cell-based; conditions: strains deemed as resistant to LK-176 alone
Protocol: as §1, §2, §3
as §4, with “The plates were incubated at 35° C. for 24 h. Purity check and colony counts on each inoculum suspension was performed to ensure that the final inoculum concentration routinely obtained closely approximates 5×10^5 CFU/mL.” left out

[16] = Table 2 lower part, duplicate, CAMHB, 35° C., 24 h
[17] = Table 2 upper part, duplicate (two lines per substance)

class A beta-lactamase SHV-1, sequence (P0AD63 22-286): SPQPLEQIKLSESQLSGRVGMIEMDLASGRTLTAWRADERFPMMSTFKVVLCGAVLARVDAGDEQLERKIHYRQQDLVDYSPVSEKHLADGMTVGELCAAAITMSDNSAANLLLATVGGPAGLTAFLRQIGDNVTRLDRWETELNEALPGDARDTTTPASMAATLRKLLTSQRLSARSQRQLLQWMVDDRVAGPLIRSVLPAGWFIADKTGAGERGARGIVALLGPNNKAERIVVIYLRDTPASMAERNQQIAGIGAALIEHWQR
class A beta-lactamase TEM-1, sequence (P62593 24-286 limits assumed): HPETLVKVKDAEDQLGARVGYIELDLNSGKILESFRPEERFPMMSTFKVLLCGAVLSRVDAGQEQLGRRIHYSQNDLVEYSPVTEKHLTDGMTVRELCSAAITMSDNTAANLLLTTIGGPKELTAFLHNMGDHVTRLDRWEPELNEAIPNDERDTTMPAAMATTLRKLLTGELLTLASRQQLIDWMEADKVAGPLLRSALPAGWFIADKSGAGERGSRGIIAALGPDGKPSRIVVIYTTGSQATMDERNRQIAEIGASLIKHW
class C beta-lactamase P99 (AmpC), sequence (P05364 21-381): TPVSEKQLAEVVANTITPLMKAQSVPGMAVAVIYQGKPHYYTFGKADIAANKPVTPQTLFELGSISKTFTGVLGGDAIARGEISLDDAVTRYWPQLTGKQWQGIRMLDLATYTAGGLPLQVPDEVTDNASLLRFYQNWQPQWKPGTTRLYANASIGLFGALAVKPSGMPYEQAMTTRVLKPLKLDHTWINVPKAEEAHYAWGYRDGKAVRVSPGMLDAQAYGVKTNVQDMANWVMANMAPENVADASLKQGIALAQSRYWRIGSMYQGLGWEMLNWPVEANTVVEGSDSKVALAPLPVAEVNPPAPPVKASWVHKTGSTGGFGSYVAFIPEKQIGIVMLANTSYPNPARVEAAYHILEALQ

## CO/N=C(\C(=O)N[C@@H]1C(=O)N2C(C(=O)[O-])=C(C[N+]3(C)CCCC3)CS[C@H]12)c1csc(N)n1 [Cefepime (EPI), cefepime]
[1]; Table 2 upper part
  MIC S5: 32 µg/mL and 16 µg/mL

## CO[C@H]1CCC[C@H]2C1=C(C(=O)O)N1C(=O)[C@H]([C@@H](C)O)[C@@H]21 [sanfetrinem]
[2]
  Safety and tolerability: good tolerability
[3]
  kcat values of AmpC: 0.00033 s⁻¹

## CCN1CCN(C(=O)N[C@@H](C(=O)N[C@@H]2C(=O)N3[C@@H]2SC(C)(C)[C@@H]3C(=O)O)c2ccccc2)C(=O)C1=O [Piperacillin (PIP), piperacillin]
[4]; [16]
  MIC S9: 128 µg/mL
[5]; Table 2 lower part
  MIC S4: 32 µg/mL
[6]
  MIC S6: >128 µg/mL
[7]; Table 2 lower part, duplicate
  MIC S8: >128 µg/mL
[8]; Table 2 lower part
  MIC S3: >128 µg/mL
[1]; Table 2 lower part
  MIC S5: 16 µg/mL
[9]; Table 2 lower part, duplicate
  MIC S1: >128 µg/mL
[10]; Table 2 lower part
  MIC S2: >128 µg/mL
[11]; Table 2 lower part, duplicate
  MIC S7: >128 µg/mL

## CO[C@H]1CCC[C@H]2C1=C(C(=O)O)N1C(=O)C(C(C)O)[C@@H]21 (stereo partly drawn) [LK-176, (4S,8S,9R)-4-methoxy-10-(1-Hydroxyethyl)-11-oxo-1-azatricyclo-[7.2.0.0 (3,8)]undec-2-ene-2-carboxylic acid]
[4]; [16]
  MIC S9: 32 µg/mL
[5]; Table 2 lower part
  MIC: 16 µg/mL
[5]; Table 2 upper part
  MIC: 32 µg/mL
[6]; Klebsiella pneumoniae, DSA1461
  MIC: 16 µg/mL
[12]
  IC50: 0.15 nM
[13]
  IC50: 200 nM
[14]
  IC50: 15 nM
[7]; Table 2 lower part, duplicate
  MIC: 64 µg/mL
[7]; Table 2 upper part, column 7, duplicate
  MIC: 128 µg/mL
[15]
  MIC values of LK-176 alone, all strains S1-S9: above 16 mg/L
[8]; Table 2 lower part
  MIC: 64 µg/mL
  MIC S3: 32 µg/mL
[8]; Table 2 upper part
  MIC: 64 µg/mL
[1]; Table 2 lower part
  MIC: 64 µg/mL
[1]; Table 2 upper part
  MIC: 32 µg/mL
[9]; Table 2 lower part, duplicate
  MIC: 32 µg/mL
  MIC S1: 16 µg/mL
[9]; [17]
  MIC: 32 µg/mL
[10]; Enterobacter cloacae, Table 2 lower part
  MIC: 64 µg/mL
[11]; Table 2 lower part, duplicate
  MIC: > 128 µg/mL
  MIC S7: 128 µg/mL
[11]; Table 2 upper part, column 6, duplicate
  MIC: 16 µg/mL

## CO/N=C(\C(=O)N[C@@H]1C(=O)N2C(C(=O)O)=C(CSc3nc(=O)c(O)nn3C)CS[C@H]12)c1csc(N)n1 [Ceftriaxone (TRI), ceftriaxone]
[5]; Table 2 lower part
  MIC S4: 8 µg/mL
[6]
  MIC S6: >128 µg/mL and 128 µg/mL
[7]; Table 2 lower part, duplicate
  MIC S8: 32 µg/mL
[8]; Table 2 lower part
  MIC S3: 32 µg/mL
[1]; Table 2 lower part
  MIC S5: >128 µg/mL
[9]; Table 2 lower part, duplicate
  MIC S1: 128 µg/mL
[10]; Table 2 lower part
  MIC S2: 64 µg/mL
[11]; Table 2 lower part, duplicate
  MIC S7: 8 µg/mL

## CO/N=C(\C(=O)N[C@@H]1C(=O)N2C(C(=O)O)=C(COC(N)=O)CS[C@H]12)c1ccco1 [Cefuroxime (URO), cefuroxime]
[4]
  MIC S9: 128 µg/mL
[5]; Table 2 lower part
  MIC S4: 128 µg/mL
[6]
  MIC S6: >128 µg/mL
[7]; Table 2 lower part, duplicate
  MIC S8: 128 µg/mL
[8]; Table 2 lower part
  MIC S3: >128 µg/mL
[1]; Table 2 lower part
  MIC S5: 64 µg/mL and 32 µg/mL
[9]; Table 2 lower part, duplicate
  MIC S1: >128 µg/mL
[10]; Table 2 lower part
  MIC S2: >128 µg/mL
[11]; Table 2 lower part, duplicate
  MIC S7: 64 µg/mL and 32 µg/mL

## CO/N=C(\C(=O)N[C@@H]1C(=O)N2C(C(=O)O)=C(COC(C)=O)CS[C@H]12)c1csc(N)n1 [Cefotaxime (OTA), cefotaxime]
[5]; Table 2 upper part
  MIC S4: 8 µg/mL
[8]; Table 2 upper part
  MIC S3: 64 µg/mL
[1]; Table 2 upper part
  MIC S5: 16 µg/mL
[9]; [17]
  MIC S1: 128 µg/mL
[10]; Table 2 upper part
  MIC S2: 128 µg/mL

## CC(C)(O/N=C(\C(=O)N[C@@H]1C(=O)N2C(C(=O)[O-])=C(C[n+]3ccccc3)CS[C@H]12)c1csc(N)n1)C(=O)O [Ceftazidime (TAZ), ceftazidime]
[5]; Table 2 upper part
  MIC S4: 16 µg/mL
[8]; Table 2 upper part
  MIC S3: 128 µg/mL
[1]; Table 2 upper part
  MIC S5: 16 µg/mL
[9]; [17]
  MIC S1: >128 µg/mL
[10]; Table 2 upper part
  MIC S2: >128 µg/mL

## C=CC1=C(C(=O)O)N2C(=O)[C@@H](NC(=O)/C(=N\OCC(=O)O)c3csc(N)n3)[C@H]2SC1 [cefixime]
[3]
  kcat values of AmpC: 10 s⁻¹
